Common to all, as to type: cell-based
For one assay, the target named is T1, αvβ8 (Homo sapiens, UniProt P06756+P26012).
T1 construct: expressed in transfected cells; host or cells: K562
In words: Cell adhesion assay, K562-αvβ8 (LAP-b1). The conditions noted are these: read-out: αvβ8 pIC50 (converted).

In another assay the target is T2, αvβ1 (Homo sapiens, UniProt P05556+P06756).
T2 construct: host or cells: A549
The assay is described as follows: Cell adhesion assay, A549-αvβ1 (LAP-b1). The conditions noted are these: for pIC50: cell adhesion, A549-αvβ1 cells, ligand LAP-b1, 2 mM MgCl2, mean pIC50.

For the next assay, the target named is T3, αvβ6 (Homo sapiens, UniProt P06756+P18564).
T3 construct: expressed in transfected cells; host or cells: K562
The assay is described as follows: Cell adhesion assay, K562-αvβ6 (LAP-b1). The conditions noted are these: read-out: αvβ6 pIC50 (converted).

The next assay addresses T4, αvβ5 (Homo sapiens, UniProt P06756+P18084).
T4 construct: expressed in transfected cells; host or cells: K562
In words: Cell adhesion assay, K562-αvβ5 (Vitronectin). The conditions noted are these: read-out: αvβ5 pIC50 (converted).

A further assay has as its target T5, αvβ3 (Homo sapiens, UniProt P05106+P06756).
T5 construct: expressed in transfected cells; host or cells: K562
In words: Cell adhesion assay, K562-αvβ3 (LAP-b1). To be noted: read-out: αvβ3 pIC50 (converted).

pIC50: −log10 of the molar value. Where a name gives a salt, the structure may show the parent alone. Read-outs that look alike come from different tables or passages of the source.

T1 sequence (P06756 31-889 limits assumed): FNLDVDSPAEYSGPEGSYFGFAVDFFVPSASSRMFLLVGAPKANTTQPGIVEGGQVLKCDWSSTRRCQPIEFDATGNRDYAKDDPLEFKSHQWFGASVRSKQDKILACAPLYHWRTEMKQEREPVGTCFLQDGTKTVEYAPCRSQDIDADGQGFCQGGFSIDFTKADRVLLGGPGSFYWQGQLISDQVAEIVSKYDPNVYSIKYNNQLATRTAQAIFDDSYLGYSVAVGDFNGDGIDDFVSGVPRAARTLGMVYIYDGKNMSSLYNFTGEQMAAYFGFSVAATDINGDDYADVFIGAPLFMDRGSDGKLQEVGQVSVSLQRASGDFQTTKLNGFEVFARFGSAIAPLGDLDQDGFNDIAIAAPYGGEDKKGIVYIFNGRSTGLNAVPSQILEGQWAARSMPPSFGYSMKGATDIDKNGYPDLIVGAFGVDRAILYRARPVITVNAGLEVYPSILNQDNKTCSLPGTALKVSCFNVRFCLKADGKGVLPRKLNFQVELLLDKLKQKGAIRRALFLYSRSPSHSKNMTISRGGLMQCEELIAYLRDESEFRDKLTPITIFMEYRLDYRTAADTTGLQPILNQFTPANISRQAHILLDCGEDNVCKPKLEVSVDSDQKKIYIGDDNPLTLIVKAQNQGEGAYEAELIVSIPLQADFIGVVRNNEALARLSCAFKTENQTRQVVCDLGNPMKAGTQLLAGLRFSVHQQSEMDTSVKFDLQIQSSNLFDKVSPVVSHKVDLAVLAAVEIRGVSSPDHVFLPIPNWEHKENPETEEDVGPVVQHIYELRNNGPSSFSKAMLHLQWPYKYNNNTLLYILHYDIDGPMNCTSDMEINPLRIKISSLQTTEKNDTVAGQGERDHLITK
T1 sequence (P06756 891-1048 partner limits assumed): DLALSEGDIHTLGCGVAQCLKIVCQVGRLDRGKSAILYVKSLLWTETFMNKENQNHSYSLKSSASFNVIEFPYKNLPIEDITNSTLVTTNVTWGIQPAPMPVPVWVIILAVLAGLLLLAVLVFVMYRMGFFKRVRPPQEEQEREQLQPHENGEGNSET
T1 sequence (P26012 43-769): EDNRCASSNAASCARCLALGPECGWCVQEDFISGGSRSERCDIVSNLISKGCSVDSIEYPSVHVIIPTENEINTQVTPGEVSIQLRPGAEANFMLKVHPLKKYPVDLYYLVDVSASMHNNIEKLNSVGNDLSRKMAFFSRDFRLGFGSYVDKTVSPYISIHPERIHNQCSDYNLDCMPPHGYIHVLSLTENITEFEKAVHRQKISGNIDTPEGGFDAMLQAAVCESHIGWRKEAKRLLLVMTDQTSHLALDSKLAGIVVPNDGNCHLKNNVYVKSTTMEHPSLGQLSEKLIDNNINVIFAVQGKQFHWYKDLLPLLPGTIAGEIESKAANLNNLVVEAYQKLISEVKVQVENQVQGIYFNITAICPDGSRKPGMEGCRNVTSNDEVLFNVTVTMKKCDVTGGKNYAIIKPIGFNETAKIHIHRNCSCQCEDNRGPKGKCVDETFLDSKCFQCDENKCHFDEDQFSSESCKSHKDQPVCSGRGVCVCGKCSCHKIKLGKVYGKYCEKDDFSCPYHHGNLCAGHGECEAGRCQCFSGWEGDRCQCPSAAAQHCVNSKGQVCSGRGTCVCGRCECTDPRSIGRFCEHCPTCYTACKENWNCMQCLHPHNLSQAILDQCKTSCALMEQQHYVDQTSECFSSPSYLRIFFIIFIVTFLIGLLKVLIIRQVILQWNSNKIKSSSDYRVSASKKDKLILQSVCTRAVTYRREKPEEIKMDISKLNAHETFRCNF
T2 sequence (P06756 31-889 limits assumed): as the sequence (P06756 31-889 limits assumed) above
T2 sequence (P06756 891-1048 partner limits assumed): as the sequence (P06756 891-1048 partner limits assumed) above
T2 sequence (P05556 21-798): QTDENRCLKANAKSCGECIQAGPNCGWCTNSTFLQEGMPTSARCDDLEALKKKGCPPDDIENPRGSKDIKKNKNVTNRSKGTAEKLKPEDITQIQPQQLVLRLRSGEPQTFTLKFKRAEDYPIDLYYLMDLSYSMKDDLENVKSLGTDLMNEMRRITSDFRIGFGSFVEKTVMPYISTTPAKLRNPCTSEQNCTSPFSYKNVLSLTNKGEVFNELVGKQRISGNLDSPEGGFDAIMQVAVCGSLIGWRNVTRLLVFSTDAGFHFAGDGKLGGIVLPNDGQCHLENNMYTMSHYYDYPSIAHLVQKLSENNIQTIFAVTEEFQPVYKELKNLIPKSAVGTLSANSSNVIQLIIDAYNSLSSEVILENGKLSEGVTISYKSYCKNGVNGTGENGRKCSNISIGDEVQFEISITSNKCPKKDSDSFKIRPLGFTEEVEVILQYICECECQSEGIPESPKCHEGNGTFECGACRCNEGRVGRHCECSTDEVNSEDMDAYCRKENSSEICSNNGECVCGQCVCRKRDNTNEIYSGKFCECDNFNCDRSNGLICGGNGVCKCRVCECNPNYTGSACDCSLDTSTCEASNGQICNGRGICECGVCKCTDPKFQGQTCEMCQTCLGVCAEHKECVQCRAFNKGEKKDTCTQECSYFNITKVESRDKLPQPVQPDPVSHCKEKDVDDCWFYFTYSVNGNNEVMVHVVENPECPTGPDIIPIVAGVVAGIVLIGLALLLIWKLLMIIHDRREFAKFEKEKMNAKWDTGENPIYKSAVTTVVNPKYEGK
T4 sequence (P06756 31-889 limits assumed): as the sequence (P06756 31-889 limits assumed) above
T4 sequence (P06756 891-1048 partner limits assumed): as the sequence (P06756 891-1048 partner limits assumed) above
T4 sequence (P18084 24-799): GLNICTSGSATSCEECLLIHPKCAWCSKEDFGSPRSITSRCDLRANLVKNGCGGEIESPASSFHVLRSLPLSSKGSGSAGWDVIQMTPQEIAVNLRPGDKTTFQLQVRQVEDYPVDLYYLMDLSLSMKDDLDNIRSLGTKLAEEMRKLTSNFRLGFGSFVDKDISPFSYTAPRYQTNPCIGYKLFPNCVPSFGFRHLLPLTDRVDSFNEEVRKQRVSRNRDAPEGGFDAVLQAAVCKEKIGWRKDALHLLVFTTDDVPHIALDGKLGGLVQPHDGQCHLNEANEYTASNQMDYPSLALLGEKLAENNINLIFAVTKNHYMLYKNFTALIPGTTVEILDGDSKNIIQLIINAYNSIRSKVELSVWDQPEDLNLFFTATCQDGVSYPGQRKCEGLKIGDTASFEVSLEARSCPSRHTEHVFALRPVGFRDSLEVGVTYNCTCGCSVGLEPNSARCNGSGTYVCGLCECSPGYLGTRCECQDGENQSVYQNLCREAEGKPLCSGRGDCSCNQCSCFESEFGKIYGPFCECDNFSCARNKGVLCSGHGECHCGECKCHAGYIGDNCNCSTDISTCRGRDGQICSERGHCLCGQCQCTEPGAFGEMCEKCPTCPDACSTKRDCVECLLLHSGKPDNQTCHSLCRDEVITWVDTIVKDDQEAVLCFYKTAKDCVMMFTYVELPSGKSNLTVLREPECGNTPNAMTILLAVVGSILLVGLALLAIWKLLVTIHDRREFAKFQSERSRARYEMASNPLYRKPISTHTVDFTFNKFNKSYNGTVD
T5 sequence (P06756 31-889 limits assumed): as the sequence (P06756 31-889 limits assumed) above
T5 sequence (P06756 891-1048 partner limits assumed): as the sequence (P06756 891-1048 partner limits assumed) above
T5 sequence (P05106 27-788): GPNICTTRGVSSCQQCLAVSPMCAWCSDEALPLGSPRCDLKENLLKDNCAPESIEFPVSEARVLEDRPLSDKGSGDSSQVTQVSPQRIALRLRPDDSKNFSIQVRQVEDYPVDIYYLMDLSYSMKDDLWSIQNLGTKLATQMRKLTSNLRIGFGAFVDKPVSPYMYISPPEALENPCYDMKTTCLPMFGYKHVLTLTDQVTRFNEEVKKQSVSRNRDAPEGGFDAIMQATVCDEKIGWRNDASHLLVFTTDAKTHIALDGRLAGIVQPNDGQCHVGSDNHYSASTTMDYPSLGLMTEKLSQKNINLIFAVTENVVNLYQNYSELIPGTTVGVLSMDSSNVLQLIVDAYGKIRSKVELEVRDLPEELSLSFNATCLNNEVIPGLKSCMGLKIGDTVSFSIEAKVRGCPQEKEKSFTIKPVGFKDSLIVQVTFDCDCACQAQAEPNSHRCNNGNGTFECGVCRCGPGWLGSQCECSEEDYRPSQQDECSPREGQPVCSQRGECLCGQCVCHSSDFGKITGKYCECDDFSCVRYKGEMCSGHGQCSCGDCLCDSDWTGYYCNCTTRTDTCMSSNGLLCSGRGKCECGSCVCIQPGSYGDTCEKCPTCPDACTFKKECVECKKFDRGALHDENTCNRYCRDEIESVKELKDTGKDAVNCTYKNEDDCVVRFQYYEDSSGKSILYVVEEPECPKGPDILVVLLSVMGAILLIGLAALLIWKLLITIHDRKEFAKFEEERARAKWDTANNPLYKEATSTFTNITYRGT
Description for αvβ1: (§1) The following cell lines were used, with ligands in brackets: K562-αvβ3 (LAP-b1), K562-αvβ5 (Vitronectin), K562-αvβ6 (LAP-b1), K562-αvβ8 (LAP-b1), A549-αvβ1 (LAP-b1). The divalent cation used to facilitate adhesion was 2 mM MgCl2. Adhesion was quantified by cell labelling with the fluorescent dye BCECF-AM (Life Technologies), where cell suspensions at 3×10^6 cells/mL were incubated with 0.33 uL/mL of 30 mM BCECF-AM at 37° C. for 10 minutes, then 50 μL/well were dispensed into the 96-well assay plate. At the assay conclusion cells that adhered were lysed using 50 μL/well of 0.5% Triton X-100 in H2O to release fluorescence. Fluorescence intensity was detected using an Envision® plate reader (Perkin Elmer). For active antagonists in the assay, data were fitted to a 4 parameter logistic equation for IC50 determinations.
Figures quoted are Mean pIC50 values.
Description for αvβ3: as §1
Figures quoted are Mean pIC50 values.
Description for αvβ5: as §1
Figures quoted are Mean pIC50 values.
Description for αvβ6: as §1
Figures quoted are Mean pIC50 values.
Description for αvβ8: as §1
Figures quoted are Mean pIC50 values.

With `O=C(O)C[C@H](CN1CC[C@](F)(CCc2ccc3c(n2)NCCC3)C1)c1cccc(N2CCOCC2)c1` [Example 2, (S)-4-(R)-(3-Fluoro-3-(2-(5,6,7,8-tetrahydro-1,8-naphthyridin-2-yl)ethyl)pyrrolidin-1-yl)-3-(3-morpholinophenyl)butanoic acid], at αvβ8, the IC50 was 25.1 nM.
Usually pIC50 stands for −log10 of the IC50, conventionally taken in molar units. In turn, `O=C(O)C[C@H](CN1CC[C@@](F)(CCc2ccc3c(n2)NCCC3)C1)c1cccc(N2CCOCC2)c1` [Example 3, (S)-4-(S)-(3-Fluoro-3-(2-(5,6,7,8-tetrahydro-1,8-naphthyridin-2-yl)ethyl)pyrrolidin-1-yl)-3-morpholinophenyl)butanoic acid maleate salt] showed a pIC50 at αvβ1 of 7.10.
`O=C(O)C[C@H](CN1CC[C@@](F)(CCc2ccc3c(n2)NCCC3)C1)c1cccc(N2CCOCC2)c1` [Example 4, (S)-4-(S)-(3-Fluoro-3-(2-(5,6,7,8-tetrahydro-1,8-naphthyridin-2-yl)ethyl)pyrrolidin-1-yl)-3-(3-morpholinophenyl)butanoic acid fumarate salt] had a negative logarithm of the IC50 (pIC50) against αvβ1 of 7.00. The pIC50 values of the last two molecules are within 0.2 log units of each other.
For the molecule `O=C(O)C[C@H](CN1CC[C@@](F)(CCc2ccc3c(n2)NCCC3)C1)c1cc(N2CCOCC2)ccc1F` [Example 5, (S)-4-((S)-3-Fluoro-3-(2-(5,6,7,8-tetrahydro-1,8-naphthyridin-2-yl)ethyl)pyrrolidin-1-yl)-3-(2-fluoro-5-morpholinophenyl)butanoic acid], the IC50 on αvβ6 is 15.8 nM; at αvβ1 (read-out: αvβ1 pIC50 (converted)), 158 nM; at αvβ5, 316 nM; on αvβ3, 794 nM; on αvβ8, 25.1 nM.
As for `O=C(O)CC(CN1CC[C@](F)(CCc2ccc3c(n2)NCCC3)C1)c1cc(N2CCOCC2)ccc1F` (stereo partly drawn) [Example 9, 4-((R)-3-Fluoro-3-(2-(5,6,7,8-tetrahydro-1,8-naphthyridin-2-yl)ethyl)pyrrolidin-1-yl)-3-(2-fluoro-5-morpholinophenyl)butanoic acid], the IC50 was 25.1 nM on αvβ6, 316 nM at αvβ5, 7940 nM on αvβ3 and 79.4 nM at αvβ8.

Values taken from patent US10000489B2, “Compounds αvβ6 integrin antagonists” (GlaxoSmithKline Intellectual Property Development Limited, priority 2014, dated 2018).
